From US20210038515A1 (Azurity Pharmaceuticals, Inc., priority 2014, published 2021)

Experiments:
[1] = system: Bifidobacterium adolescentis; experiment: Agar dilution test, other anaerobic organisms; type: cell-based; conditions: for MIC, AV (average): average of triplicate; for MIC, VAN-1: replicate 1; for MIC, VAN-2: replicate 2; for MIC, VAN-3: replicate 3
Bacteroides fragilis = experiment: Agar dilution test, other anaerobic organisms; type: cell-based; conditions: for MIC, AV (average): average of triplicate; for MIC, VAN-1: replicate 1; for MIC, VAN-2: replicate 2; for MIC, VAN-3: replicate 3

CN[C@H](CC(C)C)C(=O)N[C@H]1C(=O)N[C@@H](CC(N)=O)C(=O)N[C@H]2C(=O)N[C@H]3C(=O)N[C@H](C(=O)N[C@H](C(=O)O)c4cc(O)cc(O)c4-c4cc3ccc4O)[C@H](O)c3ccc(c(Cl)c3)Oc3cc2cc(c3O[C@@H]2O[C@H](CO)[C@@H](O)[C@H](O)[C@H]2O[C@H]2C[C@](C)(N)[C@H](O)[C@H](C)O2)Oc2ccc(cc2Cl)[C@H]1O.Cl [Sigma]
MIC, AV (average) ([1]; Bif. adolescentis RMA 21317): 1 µg/mL | MIC, VAN-1 ([1]; Bif. adolescentis RMA 21317): 1 µg/mL | MIC, VAN-2 ([1]; Bif. adolescentis RMA 21317): 1 µg/mL | MIC, VAN-3 ([1]; Bif. adolescentis RMA 21317): 1 µg/mL | MIC, AV (average) ([1]; Bif. adolescentis RMA 21531): 3 µg/mL | MIC, VAN-1 ([1]; Bif. adolescentis RMA 21531): 0.5 µg/mL | MIC, VAN-2 ([1]; Bif. adolescentis RMA 21531): 1 µg/mL | MIC, VAN-3 ([1]; Bif. adolescentis RMA 21531): 1 µg/mL | MIC, AV (average) ([1]; Bif. adolescentis RMA 21551): 1 µg/mL | MIC, VAN-1 ([1]; Bif. adolescentis RMA 21551): 1 µg/mL | MIC, VAN-2 ([1]; Bif. adolescentis RMA 21551): 1 µg/mL | MIC, VAN-3 ([1]; Bif. adolescentis RMA 21551): 1 µg/mL | MIC, AV (average) ([1]; Bif. adolescentis RMA 21680): 1 µg/mL | MIC, VAN-1 ([1]; Bif. adolescentis RMA 21680): 1 µg/mL | MIC, VAN-2 ([1]; Bif. adolescentis RMA 21680): 1 µg/mL | MIC, VAN-3 ([1]; Bif. adolescentis RMA 21680): 1 µg/mL | MIC, AV (average) ([1]; Bif. adolescentis RMA 21703): 1 µg/mL | MIC, VAN-1 ([1]; Bif. adolescentis RMA 21703): 1 µg/mL | MIC, VAN-2 ([1]; Bif. adolescentis RMA 21703): 1 µg/mL | MIC, VAN-3 ([1]; Bif. adolescentis RMA 21703): 1 µg/mL | MIC, AV (average) (Bacteroides fragilis; B. fragilis RMA 26978): >16 µg/mL | MIC, VAN-1 (Bacteroides fragilis; B. fragilis RMA 26978): >16 µg/mL | MIC, VAN-2 (Bacteroides fragilis; B. fragilis RMA 26978): >16 µg/mL | MIC, VAN-3 (Bacteroides fragilis; B. fragilis RMA 26978): >16 µg/mL | MIC, AV (average) (Bacteroides fragilis; B. fragilis RMA 26979): >16 µg/mL | MIC, VAN-1 (Bacteroides fragilis; B. fragilis RMA 26979): >16 µg/mL | MIC, VAN-2 (Bacteroides fragilis; B. fragilis RMA 26979): >16 µg/mL | MIC, VAN-3 (Bacteroides fragilis; B. fragilis RMA 26979): >16 µg/mL | MIC, AV (average) (Bacteroides fragilis; B. fragilis RMA 26980): >16 µg/mL | MIC, VAN-1 (Bacteroides fragilis; B. fragilis RMA 26980): >16 µg/mL | MIC, VAN-2 (Bacteroides fragilis; B. fragilis RMA 26980): >16 µg/mL | MIC, VAN-3 (Bacteroides fragilis; B. fragilis RMA 26980): >16 µg/mL | MIC, AV (average) (Bacteroides fragilis; B. fragilis RMA 26981): >16 µg/mL | MIC, VAN-1 (Bacteroides fragilis; B. fragilis RMA 26981): >16 µg/mL | MIC, VAN-2 (Bacteroides fragilis; B. fragilis RMA 26981): >16 µg/mL | MIC, VAN-3 (Bacteroides fragilis; B. fragilis RMA 26981): >16 µg/mL | MIC, AV (average) (Bacteroides fragilis; B. fragilis RMA 26982): >16 µg/mL | MIC, VAN-1 (Bacteroides fragilis; B. fragilis RMA 26982): >16 µg/mL | MIC, VAN-2 (Bacteroides fragilis; B. fragilis RMA 26982): >16 µg/mL | MIC, VAN-3 (Bacteroides fragilis; B. fragilis RMA 26982): >16 µg/mL
